The source of these data is patent publication US10316017B2, “COT modulators and methods of use thereof” (Gilead Sciences, Inc., priority 2015, dated 2019).

The test system of assay [1] is TNFα production in LPS-stimulated human monocytes. Nature of the assay: Cot Monocyte TNFα Cell Based Assay. The note with it: Homo sapiens, Monocyte, read-out: EC50 TNF. The gist of the method:
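Percent-of-control values derive from TR-FRET ratios of TNFα in spun-down media, referenced to unstimulated and LPS-stimulated wells. Exposure: 1 h compound preincubation, then 50 pg/ml LPS for 4 h, both at 37 °C, with 0.5% final DMSO.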

Assay [2] deals with T1, human Cot catalytic domain (30-397 amino acids) (Homo sapiens, UniProt P41279).
T1 construct: Purified recombinant human Cot catalytic domain (30-397 amino acids) was purchased from Cama Biosciences; purchased Cama Biosciences (so in the source)
T1 sequence (P41279 30-397): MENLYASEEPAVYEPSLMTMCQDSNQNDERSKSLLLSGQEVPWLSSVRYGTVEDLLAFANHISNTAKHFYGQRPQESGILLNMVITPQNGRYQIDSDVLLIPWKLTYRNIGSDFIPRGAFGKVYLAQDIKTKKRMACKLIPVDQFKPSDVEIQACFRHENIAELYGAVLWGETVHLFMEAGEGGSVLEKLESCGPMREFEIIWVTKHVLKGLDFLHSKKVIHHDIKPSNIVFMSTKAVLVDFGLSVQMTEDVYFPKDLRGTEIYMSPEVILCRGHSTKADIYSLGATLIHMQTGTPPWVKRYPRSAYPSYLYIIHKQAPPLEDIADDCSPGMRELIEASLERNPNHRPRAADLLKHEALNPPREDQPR
In words: High Throughput Cot Biochemical Assay (KinEASE TR-FRET). As to conditions: read-out: IC50 HTRF. The essentials:
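Phosphorylation of 1 μM XL665-STK3 peptide by 5 nM Cot catalytic domain was measured by time-resolved FRET using a europium […] antibody. ATP was 400 μM; buffer was 10 mM MOPS pH 7.0 with Mg2+ and DTT.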

[3] abbreviates: TNFα in LPS-stimulated human monocytes.
Where [4] appears, read: Cot KinEASE TR-FRET (HTRF) biochemical assay, 400 μM ATP.
[5] abbreviates: LPS-stimulated human monocytes, TNFα TR-FRET.
Setting [6] is: Cot KinEASE TR-FRET, 400 μM ATP.
Where [7] appears, read: Cot biochemical HTRF (KinEASE TR-FRET) assay.

Like-named read-outs stand apart in the source and are kept apart here.

Broadly, the EC50 is the concentration giving half of the maximal effect. For orientation: IC50 means the concentration that inhibits the measured activity by half. For `[2H][C@](Nc1cc(Cl)c2ncc(C#N)c(NCC(C)(C)C)c2c1)(c1cccc(C#N)c1)c1cn(C2CC2)nn1` [Example 341, (S)-8-chloro-6-(((3-cyanophenyl)(1-cyclopropyl-1H-1,2,3-triazol-4-yl)methyl-d)amino)-4-(neopentylamino)quinoline-3-carbonitrile], the EC50 in assay [1] (setting [3]) was determined as 71 nM. For the same compound, in assay [2] (setting [4]), the half-maximal inhibitory concentration (IC50) stood at 1 nM.
Turning to `Cc1c(C#N)cccc1[C@H](Nc1cc(C#N)c2ncc(C#N)c(NCC(C)(C)C(F)(F)F)c2c1)c1cn(C2(C3CC3)CC2)nn1` [Example 1152, (S)-6-(((1-([1,1'-bi(cyclopropan)]-1-yl)-1H-1,2,3-triazol-4-yl)(3-cyano-2-methylphenyl)methyl)amino)-4-((3,3,3-trifluoro-2,2-dimethylpropyl)amino)quinoline-3,8-dicarbonitrile], the EC50 in assay [1] (setting [5]) stood at 49 nM. In addition, the IC50 in assay [2] (setting [6]) worked out at 3 nM.
Take `CC(C)(C)CNc1c(C#N)cnc2c(Cl)cc(N[C@@H](c3ccc(F)c(C(N)=O)c3)c3cn(C4(C(F)(F)F)CC4)nn3)cc12` [Example 1117, (S)-5-(((8-chloro-3-cyano-4-(neopentylamino)quinolin-6-yl)amino)(1-(1-(trifluoromethyl)cyclopropyl)-1H-1,2,3-triazol-4-yl)methyl)-2-fluorobenzamide]: the half-maximal effective concentration (EC50) in assay [1] (setting [5]) is 561 nM. In addition, the IC50 in assay [2] (setting [6]) was 29 nM.
Take `Cc1cccc(CNc2c(C#N)cnc3c(Cl)cc(N[C@@H](c4ccc(Cl)cc4)c4cn(C5CCN(C(C)(C)C)CC5)nn4)cc23)c1` [Example 679, (S)-6-(((1-(1-(tert-butyl)piperidin-4-yl)-1H-1,2,3-triazol-4-yl)(4-chlorophenyl)methyl)amino)-8-chloro-4-((3-methylbenzyl)amino)quinoline-3-carbonitrile]: the EC50 in assay [1] (setting [3]) came out at 12500 nM. Also, the half-inhibitory concentration (IC50) in assay [2] (setting [7]) amounted to 355 nM.
As for `[2H]C(Nc1cc(Cl)c2ncc(C#N)c(NC(=O)C(C)(C)C)c2c1)(c1ccc(F)cc1)c1cn(C2CC2)nn1` (stereo not shown) [Compound 33], the EC50 in assay [1] (setting [3]) is more than 10000 nM. Also, in assay [2] (setting [4]), the IC50 was determined as 1620 nM.
Consider `[2H][C@@](Nc1cc(C#N)c2ncc(C#N)c(NCC(C)(C)C)c2c1)(c1cn(C(C)(C)C)nn1)c1ccccc1Cl` [Example 1029, (S)-6-(((1-(tert-butyl)-1H-1,2,3-triazol-4-yl)(2-chlorophenyl)methyl-d)amino)-4-(neopentylamino)quinoline-3,8-dicarbonitrile], for which the 50% effective concentration (EC50) in assay [1] (setting [5]) was 225 nM. The IC50 in assay [2] (setting [6]) is 14 nM.
In the case of `N#Cc1cnc2c(Cl)cc(N[C@@H](c3ccc(F)cc3)c3cn(-c4ccccc4)nn3)cc2c1Nc1cnc(F)c(F)c1` [Example 408, (S)-8-chloro-4-((5,6-difluoropyridin-3-yl)amino)-6-(((4-fluorophenyl) (1-phenyl-1H-1,2,3-triazol-4-yl)methyl)amino)quinoline-3-carbonitrile], the EC50 in assay [1] (setting [3]) is 779 nM. Also, the IC50 in assay [2] (setting [7]) was found to be 41 nM.
In the case of `N#Cc1cnc2c(Cl)cc(N[C@@H](c3ccc(F)cc3)c3cn(CCCN4CCCC4)nn3)cc2c1Nc1cnc(F)c(F)c1` [Example 459], in assay [1] (setting [3]), the EC50 was 454 nM. In assay [2] (setting [7]), the IC50 came to 9 nM.
As for `CC(C)(C)CNc1c(C#N)cnc2c(C#N)cc(N[C@@H](c3ccc(Cl)cc3)c3cn(C4CC4)nn3)cc12` [Example 77, (S)-6-(((4-chlorophenyl) (1-cyclopropyl-1H-1,2,3-triazol-4-yl)methyl)amino)-4-(neopentylamino) quinoline-3,8-dicarbonitrile], in assay [1] (setting [3]), the EC50 is 108 nM. The IC50 in assay [2] (setting [4]) was 9 nM.
On to `N#Cc1cnc2c(Cl)cc(N[C@@H](c3ccc(Cl)cc3)c3cn(C4CCNCC4)nn3)cc2c1Nc1ccc(F)c(Cl)c1` [Example 859, (S)-8-chloro-4-((3-chloro-4-fluorophenyl)amino)-6-(((4-chlorophenyl)(1-(piperidin-4-yl)-1H-1,2,3-triazol-4-yl)methyl)amino)quinoline-3-carbonitrile], for which the EC50 in assay [1] (setting [3]) worked out at 533 nM. Further, in assay [2] (setting [7]), the half-maximal inhibitory concentration (IC50) came out at 12 nM.
In the case of `CC(C)CNc1c(C#N)cnc2c(Cl)cc(N[C@@H](c3ccc(F)cc3)c3cn(C4CC4)nn3)cc12` [Example 345, (S)-8-chloro-6-(((1-cyclopropyl-1H-1,2,3-triazol-4-yl)(4-fluorophenyl)methyl)amino)-4-(isobutylamino)quinoline-3-carbonitrile], the EC50 in assay [1] (setting [3]) worked out at 976 nM. The IC50 in assay [2] (setting [4]) amounted to 57 nM.
Consider `CC[C@@H](Nc1c(C#N)cnc2c(Cl)cc(N[C@H](c3cn(C4CC4)nn3)c3ccccc3-c3ccccc3)cc12)c1ccccc1` [Example 96, 6-(((S)[1,1'-biphenyl]-2-yl(1-cyclopropyl-1H-1,2,3-triazol-4-yl)methyl)amino)-8-chloro-4-(((R)-1-phenylpropyl)amino) quinoline-3-carbonitrile], for which the EC50 in assay [1] (setting [3]) is more than 1000 nM. The IC50 in assay [2] (setting [4]) was determined as 778 nM.
Take `CC[C@@H](Nc1c(C#N)cnc2c(Cl)cc(N[C@@H](c3ccc(Cl)cc3)c3cn(C4CCN(C(C)(C)C)CC4)nn3)cc12)c1ccccc1` [Example 677, 6-(((S)-(1-(1-(tert-butyl)piperidin-4-yl)-1H-1,2,3-triazol-4-yl)(4-chlorophenyl)methyl)amino)-8-chloro-4-(((R)-1-phenylpropyl)amino)quinoline-3-carbonitrile]: the EC50 in assay [1] (setting [3]) stood at 809 nM. In assay [2] (setting [7]), the IC50 was 10 nM.
As for `CC(C)(C)CNc1c(C#N)cnc2c(Cl)cc(N[C@@H](c3ccc(F)cc3)c3cn(C4(C)CC4)nn3)cc12` [Example 990, (S)-8-chloro-6-(((4-fluorophenyl)(1-(1-methylcyclopropyl)-1H-1,2,3-triazol-4-yl)methyl)amino)-4-(neopentylamino)quinoline-3-carbonitrile], the EC50 in assay [1] (setting [5]) came out at 76 nM. The IC50 in assay [2] (setting [6]) is 12 nM.
Turning to `N#Cc1cnc2c(Cl)cc(N[C@@H](c3ccc(F)cc3)c3c[nH]nn3)cc2c1Nc1cnc(F)c(F)c1` [Example 513, (S)-8-chloro-4-((5,6-difluoropyridin-3-yl)amino)-6-(((4-fluorophenyl)(1H-1,2,3-triazol-4-yl)methyl)amino) quinoline-3-carbonitrile], the EC50 in assay [1] (setting [3]) was 1340 nM. Also, the IC50 in assay [2] (setting [7]) worked out at 22 nM.
`[2H][C@](Nc1cc(Cl)c2ncc(C#N)c(N[C@H](CC#N)c3ccccc3)c2c1)(c1ccc(F)cc1)c1cn(C2CC2)nn1` [Example 331, 8-chloro-4-(((R)-2-cyano-1-phenylethyl)amino)-6-(((S)-(1-cyclopropyl-1H-1,2,3-triazol-4-yl)(4-fluorophenyl)methyl-d)amino)quinoline-3-carbonitrile]: the EC50 in assay [1] (setting [3]) was determined as 75 nM. Also, the IC50 in assay [2] (setting [4]) came out at 4 nM.
For `CC(C)(C)CNc1c(C#N)cnc2c(Cl)cc(N[C@H](c3cn(C4(C(F)F)CC4)nn3)c3cccc(C#N)c3Cl)cc12` [Example 1075, (S)-8-chloro-6-(((2-chloro-3-cyanophenyl)(1-(1-(difluoromethyl)cyclopropyl)-1H-1,2,3-triazol-4-yl)methyl)amino)-4-(neopentylamino)quinoline-3-carbonitrile], the EC50 in assay [1] (setting [5]) was found to be 185 nM. The IC50 in assay [2] (setting [6]) turned out to be 23 nM.
The like results for `CNC(=O)c1cc([C@H](Nc2cc(Cl)c3ncc(C#N)c(NCC(C)(C)C)c3c2)c2cn(C3(C(F)(F)F)CC3)nn2)ccc1F` [Example 1116, (S)-5-(((8-chloro-3-cyano-4-(neopentylamino)quinolin-6-yl)amino)(1-(1-(trifluoromethyl)cyclopropyl)-1H-1,2,3-triazol-4-yl)methyl)-2-fluoro-N-methylbenzamide] were, in that order, not below 1000 nM and 38 nM.
Take `Cc1c(C#N)cccc1[C@H](Nc1cc(Cl)c2ncc(C#N)c(NCC(C)(C)C(F)(F)F)c2c1)c1cn(C2(C)CC2)nn1` [Example 1104, (S)-8-chloro-6-(((3-cyano-2-methylphenyl)(1-(1-methylcyclopropyl)-1H-1,2,3-triazol-4-yl)methyl)amino)-4-((3,3,3-trifluoro-2,2-dimethylpropyl)amino)quinoline-3-carbonitrile]: the EC50 in assay [1] (setting [5]) worked out at 53 nM. Besides, the IC50 in assay [2] (setting [6]) came out at 3 nM.
`[2H][C@](Nc1cc(Cl)c2ncc(C#N)c(Nc3cnc(F)c(F)c3)c2c1)(c1ccc(F)cc1)c1cn(CF)nn1` [Compound 44]: the EC50 in assay [1] (setting [3]) came to 902 nM. Moreover, the IC50 in assay [2] (setting [4]) was found to be 53 nM.
`COC1CN(C(=O)c2cccc([C@H](Nc3cc(Cl)c4ncc(C#N)c(Nc5ccc(F)c(Cl)c5)c4c3)c3cn(C4CCN(C(C)(C)C)CC4)nn3)c2)C1` [Example 621, (S)-6-(((1-(1-(tert-butyl)piperidin-4-yl)-1H-1,2,3-triazol-4-yl)(3-(3-methoxyazetidine-1-carbonyl)phenyl)methyl)amino)-8-chloro-4-((3-chloro-4-fluorophenyl)amino)quinoline-3-carbonitrile]: the EC50 in assay [1] (setting [3]) worked out at 112 nM. In assay [2] (setting [7]), the IC50 stood at 2 nM.
As for `N#Cc1cnc2c(Cl)cc(N[C@@H](c3ccc(Cl)cc3)c3c[nH]nn3)cc2c1Nc1ccc(F)c(F)c1F` [Example 631, (S)-8-chloro-6-(((4-chlorophenyl)(1H-1,2,3-triazol-4-yl)methyl)amino)-4-((2,3,4-trifluorophenyl)amino)quinoline-3-carbonitrile], in assay [1] (setting [3]), the EC50 was found to be 1080 nM. For the same compound, the IC50 in assay [2] (setting [7]) was determined as 166 nM.
For `N#Cc1cnc2c(Cl)cc(NC(c3ccc(F)cc3)c3ccon3)cc2c1Nc1ccc(F)c(Cl)c1` (stereo not shown) [Compound 7], in assay [1] (setting [3]), the EC50 was found to be 1520 nM. The IC50 in assay [2] (setting [4]) was 187 nM.
